Laboratory results published in publication PMC9608663, “Anti-Alzheimer and Antioxidant Effects of Nelumbo nucifera L. Alkaloids, Nuciferine and Norcoclaurine in Alloxan-Induced Diabetic Albino Rats” (Pharmaceuticals, 2022).
“And” between values parts separate entries of the source, which are not always exact repeats. Equal values may be shown once.

Experiments:
[1] = tested on: reduced glutathione (GSH); assay: Reduced glutathione assay (GSH) in blood of diabetic rats; assay type: in vivo, albino rats (Sprague–Dawley); details: 10 mg/kg, 15 days
Protocol: (§1) The rats were divided into seven groups (six rats in each group). Normal and diabetic control groups I and II, standard glibenclamide (10 mg/kg) group III, N. nucifera crude (100–200 mg/kg) groups IV and V and nuciferine and norcoclaurine (10 mg/kg) group VI and VII. Rats were anesthetized after 15 days and their organ sections were collected for different activities. Blood was collected from each rat and centrifuged at 4000 rpm for 10 min for antioxidant enzyme activities. The brain was homogenized in 100 mM Tris buffer (Sigma, Hamburg, Germany) (pH 8.0).
GSH assay was carried out by mixing the blood serum with substrate DTNB by the modified method of Biessels.

[2] = tested on: lipid peroxidation (TBARS); assay: Lipid peroxidation assay (TBARS) in blood of diabetic rats; assay type: in vivo, albino rats (Sprague–Dawley); details: 10 mg/kg, 15 days
Protocol: as §1
The lipid peroxidation activity in the blood sample was determined by slight modification in Sohal’s method. The reaction mixtures containing homogenate sample (0.2 mL) in 0.1 M phosphate buffer pH 7.4 (0.58 mL), ferric chloride (0.02 mL) and ascorbic acid (0.2 mL). The reaction mixture was incubated at […] for 1 h and stopped the reaction by adding 10% trichloro-acetic acid. The reaction mixture was continuously boiled, shaken for 20 min in a water bath and centrifuged for 10 min. The formation of TBARS was monitored at wavelength of 535 nm.

[3] = Body weight of alloxan-induced diabetic rats; assay type: in vivo, albino rats (Sprague–Dawley); details: 10 mg/kg b.w./day
Protocol: (§2) Forty-two (42) fully matured albino rats (200–250 g b.w.) of Sprague–Dawley types were purchased from National Institute of Health, Islamabad, Pakistan and kept under normal conditions for 15 days with 12-h dark/light rotation.
(§3) Alloxan monohydrate injection (100 mg/kg) was applied to experimental rats to induce diabetic conditions followed by giving 5% glucose water for 28 h in order to decrease the death probability in alloxan-induced rates from hyperglycemic shock. Over 300 mg/dL (3 mg/mL) blood glucose level (fasting blood plasma) was considered diabetic and a selective parameter for further study.
as §1

[4] = tested on: catalase (CAT); assay: Catalase assay (CAT) in blood of diabetic rats; assay type: in vivo, albino rats (Sprague–Dawley); details: 10 mg/kg, 15 days
Protocol: as §1, with “8.0). Protein variation for several brain structures was measured followed by protein determination of striatum (0.3 mg/mL), hippocampus (0.6.0 mg/mL), cerebellum (0.7 mg/mL) and hypothalamus (0.4 mg/mL and cerebral cortex (0.8.0 mg/mL)).” for “8.0).”
Catalase activity was determined in blood samples by modified method of Chance and Maehly. The assay mixture comprised 0.1 mL blood serum, 2.5 mL phosphate buffer (pH 5) and 0.4 mL H2O2 while the absorbance was measured at 240 nm.

[5] = tested on: alloxan-induced diabetic rats; assay: Blood glucose level in alloxan-induced diabetic rats; assay type: in vivo, albino rats (Sprague–Dawley); details: 10 mg/kg b.w./day
Protocol: as §2, §3, §1

[6] = tested on: glutathione peroxidase (GPx); assay: Glutathione peroxidase assay (GSH-Px) in blood of diabetic rats; assay type: in vivo, albino rats (Sprague–Dawley); details: 10 mg/kg, 15 days
Protocol: as §1
Glutathione peroxidase assay was carried out by reaction mixtures of 0.1 mL blood serum with 1.49 mL phosphate buffer (pH 7.4), 0.1 mL EDTA, 0.1 mL sodium azide, 0.1 mL NADPH, 0.05 mL GSH and 0.01 mL H2O2. The intensity of color loss of NADPH was measured at 340 nm.

[7] = tested on: acetylcholinesterase (AChE); assay type: in vivo; details: blood of diabetic rats, 10 mg/kg, 15 days; table title: AChE activity, µmol AcSCh/h/mg of protein
Protocol: as §1
(§4) In the brain (hippocampus, cerebellum, hypothalamus, striatum and cerebral cortex) and in the blood, AChE activity was measured using calorimetric method with slight modification. The sample of 0.1 mL brain homogenate as well as blood serum (containing 100 mM potassium phosphate buffer (pH 7.5), 1 mM DTNB and 0.8 mM […] (Sigma, Hamburg, Germany) were tested as AChE enzyme. The increase in enzyme activity was measured at 412 nm after the formation of the yellow-colored anion of 4, 4-ditheo-bis-nitrobenzoic acid and experiments were performed in triplicates.

[8] = target: T1, acetylcholinesterase (AChE) (Rattus norvegicus, UniProt P37136); assay: AChE activity in brain regions of diabetic rats; assay type: in vivo; details: 10 mg/kg, 15 days; for AChE activity, Cerebellum: cerebellum homogenate; for AChE activity, Cerebral Cortex: cerebral cortex homogenate; for AChE activity, Hippocampus: hippocampus homogenate; for AChE activity, Hypothalamus: hypothalamus homogenate; for AChE activity, Striatum: striatum homogenate
T1 construct: from tissue; host or cells: rat brain homogenate (cerebral cortex, cerebellum, hypothalamus, striatum, hippocampus)
T1 sequence (P37136 32-614): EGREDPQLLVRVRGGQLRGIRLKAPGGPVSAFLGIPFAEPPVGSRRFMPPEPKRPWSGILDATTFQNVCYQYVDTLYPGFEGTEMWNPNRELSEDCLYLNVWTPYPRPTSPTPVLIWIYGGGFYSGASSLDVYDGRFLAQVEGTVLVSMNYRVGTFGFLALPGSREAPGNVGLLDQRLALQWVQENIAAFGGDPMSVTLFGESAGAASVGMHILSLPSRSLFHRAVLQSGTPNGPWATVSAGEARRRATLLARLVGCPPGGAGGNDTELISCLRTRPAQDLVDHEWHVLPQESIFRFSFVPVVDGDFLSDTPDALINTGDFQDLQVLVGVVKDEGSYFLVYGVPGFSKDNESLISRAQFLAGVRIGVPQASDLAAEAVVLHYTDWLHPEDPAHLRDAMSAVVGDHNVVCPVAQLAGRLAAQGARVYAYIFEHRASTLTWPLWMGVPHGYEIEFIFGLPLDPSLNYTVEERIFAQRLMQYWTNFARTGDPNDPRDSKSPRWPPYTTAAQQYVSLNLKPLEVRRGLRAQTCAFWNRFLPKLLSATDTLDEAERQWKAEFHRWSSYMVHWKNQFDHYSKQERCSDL
Protocol: as §1, §4

[9] = tested on: superoxide dismutase (SOD); assay: Superoxide dismutase assay (SOD) in blood of diabetic rats; assay type: in vivo, albino rats (Sprague–Dawley); details: 10 mg/kg, 15 days
Protocol: as §1
Superoxide dismutase activity was determined by an assay mixture containing 0.3 mL blood sample, 1.2 mL sodium pyrophosphate, 0.1 mL phenazine methosulphate and 0.2 mL NADH. The reaction was stopped within a minute by adding 1 mL of glacial acetic acid and the concentration of product was monitored at 560 nm.

| Structure (SMILES) | GSH [1] | TBARS [2] | Variations in Body Weight ([3]; day 0) | Variations in Body Weight ([3]; day 5) | Variations in Body Weight ([3]; day 10) | CAT [4] | Blood Glucose Level ([5]; day 0) | Blood Glucose Level ([5]; day 5) | Blood Glucose Level ([5]; day 10) | Blood Glucose Level ([5]; day 15, 10 mg/kg/day) | GPx [6] | AChE activity [7] | AChE activity, Cerebellum [8] | AChE activity, Cerebral Cortex [8] | AChE activity, Hippocampus [8] | AChE activity, Hypothalamus [8] | AChE activity, Striatum [8] | SOD [9] | Variations in Body Weight ([3]; day 15, 10 mg/kg/day) | also measured |
| --- | --- | --- | --- | --- | --- | --- | --- | --- | --- | --- | --- | --- | --- | --- | --- | --- | --- | --- | --- | --- |
| COc1ccc(Cl)cc1C(=O)NCCc1ccc(S(=O)(=O)NC(=O)NC2CCCCC2)cc1 [glibenclamide, reference compound] | 89.52 ± 4.74 GSH/mg Protein | 1.55 ± 0.8 nmol MDA/mg Protein | 180.11 ± 1.90 g | 169.54 ± 2.41 g | 171.23 ± 2.07 g | 6.45 ± 3.9 E/min/mg Protein | 2.00 ± 1.85 mg/mL | 1.54 ± 1.68 mg/mL | 1.37 ± 1.20 mg/mL | 0.94 ± 1.20 mg/mL | 7.80 ± 1.6 nmol NADPH/min/mg Protein | 45 ± 2.01 % | 50 ± 1.20 µmol AcSCh/h/mg of protein | 55 ± 2.06 µmol AcSCh/h/mg of protein | 43 ± 1.10 µmol AcSCh/h/mg of protein | 50 ± 2.15 µmol AcSCh/h/mg of protein | 46 ± 1.59 µmol AcSCh/h/mg of protein | 5.91 ± 0.3 SOD/mg Protein | – | Variations in Body Weight ([3]; day 15): 179.50 ± 1.40 g; Blood Glucose Level ([5]; day 15, listed as glibencamide, 10 mg/kg/day): 0.94 ± 1.20 mg/mL |
| Oc1ccc(CC2NCCc3cc(O)c(O)cc32)cc1 (stereo not shown) [norcoclaurine] | 76.68 ± 0.4 GSH/mg Protein | 1.98 ± 0.9 nmol MDA/mg Protein | 178.22 ± 7.61 g | 159.85 ± 1.34 g | 169.11 ± 3.01 g | 5.1 ± 0.3 E/min/mg Protein | 2.10 ± 4.67 mg/mL | 1.70 ± 3.25 mg/mL | 1.58 ± 1.43 mg/mL | – | 6.70 ± 0.89 nmol NADPH/min/mg Protein | 55 ± 1.23 % | 57 ± 1.40 µmol AcSCh/h/mg of protein | 60 ± 0.80 µmol AcSCh/h/mg of protein | 48 ± 0.20 µmol AcSCh/h/mg of protein | 60 ± 4.30 µmol AcSCh/h/mg of protein | 56 ± 0.90 µmol AcSCh/h/mg of protein | 6.2 ± 0.7 SOD/mg Protein | 178.91 ± 1.32 g | Blood Glucose Level ([5]; day 15): 1.08 ± 3.15 mg/mL |
| COc1cc2c3c(c1OC)-c1ccccc1C[C@H]3N(C)CC2 [nuciferine] | 86.96 ± 0.7 GSH/mg Protein | 1.60 ± 0.8 nmol MDA/mg Protein | 177.43 ± 4.19 g | 161.97 ± 2.21 g | 173.22 ± 2.67 g | 6.16 ± 0.7 E/min/mg Protein | 2.05 ± 3.85 mg/mL | 1.64 ± 2.51 mg/mL | 1.42 ± 1.23 mg/mL | 1.00 ± 1.45 mg/mL | 7.98 ± 0.9 nmol NADPH/min/mg Protein | 42 ± 7.43 % | 53 ± 1.70 µmol AcSCh/h/mg of protein | 56 ± 1.41 µmol AcSCh/h/mg of protein | 41 ± 1.10 µmol AcSCh/h/mg of protein | 55 ± 3.20 µmol AcSCh/h/mg of protein | 50 ± 1.90 µmol AcSCh/h/mg of protein | 7.1 ± 0.2 SOD/mg Protein | 182.33 ± 3.05 g and 177.33 ± 3.05 g | – |
